Assay results as given in US12396948B2, “Pharmaceutical compositions for the treatment of ophthalmic conditions” (Rhodes Technologies, priority 2017, dated 2025).
Counter-ions that a name gives are not always drawn.

Key:
[1] = cited from earlier work
Female C57BL/6J mice [2] = test: Conscious mouse IOP after single topical drop (Example 57); type: in vivo; details: for maximal IOP effect: conscious mice
Protocol: Female C57BL/6J mice (Jackson Laboratories, Bar Harbor, ME; age 2-3 months) were kept in 12 h light/12 h dark conditions (lights on 0600 h) and fed with standard chow. All experimental procedures were conducted in accordance with the ARVO Statement for the Use of Animals in Ophthalmic and Vision Research, and the University of North Texas Health Science Center Institutional Animal Care and Use Committee Regulations and Guidelines.
Dronabinol ophthalmic solutions (0.05% and 0.5%) and the corresponding vehicle were provided by Rhodes Technologies. Timolol maleate 0.5% (Hi. Tech Pharmacal) was purchased. Formulation AE10C-B was prepared as described above (Table 44).
The 2-tailed unpaired Student's t-test was used for comparison of results at the same time point between two study groups. P values of less than 0.05 were considered significant. All data are presented as mean±SEM.

Female C57BL/6J mice [3] = test: Mouse aqueous humor dynamics by constant flow infusion (Example 57); details: 0.5% emulsion
Description: Briefly, immediately following bilateral tonometry in anesthetized animals, both eyes received a drop of proparacaine HCl (0.5%) for topical anesthesia, and both anterior chambers were cannulated with a 30G needle (one per eye) connected to previously calibrated BLPR-2 flow-through pressure transducers (World Precision Instruments (WPI), Sarasota, FL) for the continuous determination of pressure. A drop of PBS was also given to each eye topical ocular to prevent corneal drying. The opposing end of each transducer was connected to a 3-way valve, which in turn was connected to: (a) a 50 FAL glass microsyringe (Hamilton Company, Reno, NV) filled with sterile PBS loaded into an SP101i microdialysis infusion pump (WPI), and (b), an open ended, variable height manometer. Signals from the pressure transducers were passed via a TBM4M Bridge Amplifier (WPI) and a Lab-Trax analog-to-digital converter (WPI) to a computer. Data were recorded using LabScribe2 software (WPI).
The manometer was closed to the circuit and eyes were infused at a flow rate of 0.1 μL/min. When pressure had stabilized, pressure measurements were recorded, and flow rate was increased sequentially to 0.2, 0.3, 0.4, and 0.5 μL/min. Three stabilized pressures (spaced 5 min apart) at each flow rate were recorded. Aqueous outflow facility (C) in each eye of each animal was calculated as the reciprocal of the slope of a plot of Mean Stabilized Pressure as ordinate against Flow Rate as abscissa.
Episcleral venous pressure (Pe) was estimated using the blood reflux method. Briefly, following anterior chamber cannulation, the manometer was opened to the circuit, manometric pressure was set to equal pre-cannulation (anesthetized) TOP, and then manometric pressure was lowered incrementally (at the rate of 1 mmHg/min) until the point at which blood was seen (using a dissection microscope under 30× magnification) to reflux into the scleral collector channels and then Schlemm's canal. The manometric pressure at which Schlemm's canal was seen to fill with refluxed blood was regarded as Pe.
After completion of the above measurements, animals were euthanized by anesthetic overdose and, 20 min following euthanasia, C was measured again. Thus values for Clive and C dead were obtained. Following euthanasia, both aqueous humor formation rate (Fin) and Pe are equal to zero, and via algebraic rearrangement of the modified Goldmann equation {IOP=[(Fin−Fu)/C]+Pe}, values for Fu were thus calculated for each individual perfusion rate and corresponding TOP. The mean of those resultant 5 values was reported as Fu.
Aqueous Humor Formation Rate (Fin) was calculated for each eye by further algebraic rearrangement of the modified Goldmann equation: Fin=[C×(IOP−Pe)]+Fu.

mouse = test: Repeated dosing study on IOP lowering effects (Example 58); type: in vivo; details: for maximum IOP reduction: twice daily 7 days, vs contralateral untreated eye
Protocol: Study protocol is similar to Dose-Response Relationship Study described above, except that the animals are divided into three groups (as specified below). A single 5 μL drop was instilled topically onto one eye of each mouse twice daily starting at time 0 of Day 1.
The contralateral eye was untreated. IOP of both eyes was measured at −1 h (baseline), 2 h, 4 h, 6 h, 8 h, 12 h. […] In addition to IOP measurement, animals were evaluated for possible ocular and gross systemic adverse effects. • Group 1: Vehicle • Group 2: Dronabinol (optimal concentration determined in studies above) • Group 3: Timolol (0.5%) Results: The results are presented in FIGS. 28 and 29, which illustrate comparison of IOP effects of the Dronabinol formulations, vehicle, and Timolol. The formulations were administered twice daily at 8-9 AM (Time 0) and 4-5 PM starting Day 1 till Day 7. The upper panel reports IOP values at the indicated time points after dosing (IOP at Time 0 was obtained immediately prior to the morning dosing) of Days 1, 4, and 7. The bottom panel represents % IOP change compared to the contralateral untreated eye, whose IOP defines 100%. Data are shown as mean±SEM.

[4] = Impurity profile of antioxidant excipient solutions (Example 42); type: physicochemical; details: for Impurity (% Area) Total / Impurity (% w/w) Total: excipient solution; for Impurity (% w/w) Total: converted to levels corresponding to antioxidant concentrations in the dronabinol formulations

Q: Which “Solub. in Water” value [1] does the source give for `CCCCCCCCCCCCCCCC(=O)OC[C@H](O)[C@H]1OC(=O)C(O)=C1O` [Ascorbyl Palmitate] here?
A: 0.07 mg/L

Q: Which “Solub. in Water (in words)” value [1] does the source give for `COc1ccc(O)c(C(C)(C)C)c1` [Butylated Hydroxyanisole (BHA)] here?
A: Insoluble

Q: For `CCCCCc1cc(O)c2c(c1)OC(C)(C)[C@@H]1CCC(C)=C[C@@H]21` [Dronabinol, (−)-trans-Δ^9-tetrahydrocannabinol], which “IOP reduction at 24 h after treatment” value (Female C57BL/6J mice [2]; 0.05% and 0.5%, single 5 μL drop) is on record?
A: still significant

Q: And the “ocular, systemic, or behavioral adverse effects” value (Female C57BL/6J mice [2]; 0.05% and 0.5%, single topical drop)?
A: No ocular, systemic, or behavioral adverse effects were observed

Q: What about the “maximal IOP effect” value (Female C57BL/6J mice [2]; 0.05% ophthalmic solution, single 5 μL drop, @ 6 h) of the same compound?
A: −22.3%

Q: And the “maximal IOP effect” value (Female C57BL/6J mice [2]; 0.5% ophthalmic solution, single 5 μL drop, @ 2 h)?
A: −25.8%

Q: What about the ocular adverse effect (Female C57BL/6J mice [3]) of the same compound?
A: No ocular adverse effect was observed

Q: And the “IOP lowering in anesthetized animals” value (Female C57BL/6J mice [3]; 2 h after treatment)?
A: 29.9%

Q: And the “aqueous humor formulation rate, change” value (Female C57BL/6J mice [3]; 2 h after treatment)?
A: −21.6%

Q: And the “aqueous outflow facility, increase” value (Female C57BL/6J mice [3]; 2 h after treatment)?
A: 54.5%

Q: What about the “episcleral venous pressure, change” value (Female C57BL/6J mice [3]; 2 h after treatment) of the same compound?
A: −26.8%

Q: And the “maximum IOP reduction” value (mouse; 0.005% formulation)?
A: 19.8%

Q: What about the “maximum IOP reduction” value (mouse; 0.015% formulation) of the same compound?
A: 25.7%

Q: And the “maximum IOP reduction” value (mouse; 0.05% formulation)?
A: 33.2%

Q: What about the duration of action (mouse; 0.05%, lowered baseline IOP at Days 4 & 7) of the same compound?
A: > 16 h

Q: What about the “tachyphylaxis or adverse effect” value (mouse; 7-day twice daily dosing, 0.005%, 0.015%, 0.05%) of the same compound?
A: No tachyphylaxis or adverse effect was observed

Q: Which “Solub. in Water” value [1] does the source give for `O=C(O)/C=C/C(=O)O` [Fumaric Acid] here?
A: 0.007 mg/L

Q: For `O=C(O)CC(O)C(=O)O` (centres unmarked) [Malic Acid], which “Solub. in Water” value [1] is on record?
A: 59.2 g/100 mL water

Q: Which “Solub. in Water (in words)” value [1] does the source give for `OCC(O)CS` (centres unmarked) [Monothioglycerol] here?
A: Slightly

Q: With `O=S([O-])S(=O)(=O)[O-].[K+].[K+]` [Potassium Metabisulfite] as the compound, how does the “Solub. in Water” value [1] read?
A: 49.5 g/100 mL water

Q: For `CCCOC(=O)c1cc(O)c(O)c(O)c1` [Propyl Gallate], which “Solub. in Water” value [1] is on record?
A: 0.35 g/100 mL water

Q: Which “Solub. in Water (in words)” value [1] does the source give for `O=S([O-])S(=O)(=O)[O-].[Na+].[Na+]` [Sodium Metabisulfite] here?
A: Freely

Q: Which results are given for `O=S([O-])[O-].[Na+].[Na+]` [Sodium Sulfite]?
A: Impurity (% Area) Total [4]: 0.0 % Area; Impurity (% w/w) Total [4]: 0.0 % w/w

Q: Which “Impurity (% Area) Total” value [4] does the source give for `O=S([O-])([O-])=S.[Na+].[Na+]` [Sodium Thiosulfate] here?
A: 0.0 % Area

Q: What about the “Impurity (% w/w) Total” value [4] of the same compound?
A: 0.0 % w/w

Q: With `O=S=O` [Sulfur Dioxide] as the compound, how does the “Solub. in Water” value [1] read?
A: 8.5 g/100 mL water

Q: For `CC(C)(C)NC[C@H](O)COc1nsnc1N1CCOCC1` [Timolol, Timolol maleate], which “effect on mouse IOP” value (Female C57BL/6J mice [2]; 0.5%, positive control) is on record?
A: lowered mouse TOP as expected

Q: What about the “prolonged IOP reduction (baseline IOP at Days 4 & 7)” value (mouse; 0.5%, twice daily) of the same compound?
A: did not produce this prolonged IOP reduction

Q: What about the “maximum IOP reduction” value (mouse; 0.5%) of the same compound?
A: 35.1%

Q: Which “RRT 0.83 in testing of excipients” value ([4]; 0.5% Vitamin A) does the source give for `CC(=O)OC/C=C(C)/C=C/C=C(C)/C=C/C1=C(C)CCCC1(C)C` [Vitamin A] here?
A: ~0.5 % w/w

Q: Which “Solub. in Water (in words)” value [1] does the source give for Vitamin E here?
A: Insoluble
